Measured values from patent publication US7476729B2, “Dbait and uses thereof” (Institut Curie, priority 2003, dated 2009).

Tests used:
[1] = system: DNA end-joining reaction in the nuclear extracts of Hep2 cells; assay: DNA end-joining assay in Hep2 nuclear extract; type: biochemical, human; details: 2 h incubation with various Dbait
Protocol: DNA end-joining was monitored by incubating ^32P-labeled 605-bp linear DNA fragments with Hep2 nuclear extract in the presence of various Dbait molecules. Ligation products migrate as dimers, trimers or tetramers, starting 605 bp monomer.
Approximately 16% of the ^32P-labeled blunt linear duplex DNA molecules were ligated into dimers and trimers during the first 2 h of incubation. The amount of high molecular weight ligation products increased up to 30% of the total input DNA after 16 h. […] In most experiments, Dbait32H (SEQ ID NO: 1) was added simultaneously with the labeled DNA fragments to the nuclear extract.
Various Dbait molecules were tested for their effect on the cell-free assay by adding the molecules to nuclear extract and incubating for 2 h with the DNA fragments.
(§1) DNA-PK activity was monitored using the kit SignaTECT DNA-dependent Protein Kinase Assay System (Promega, Madison, USA). Increasing amounts of Hep2 nuclear extract (cleaned of endogenous DNA by DEAE-Sepharose filtration) were assayed in the presence of 250 nM Dbait. Extract, biotinylated peptide substrate and various amount of nuclear extract were incubated 5 minutes at 30° C. with (γ-^32P)ATP according to manufacturer indications. The biotinylated substrate was capture on streptavidine membrane, washed and counted in a scintillation counter. Percentage of phosphorylation is calculated by dividing the bound radioactivity by the total count of (γ-^32P)ATP per sample. Reactions (10 μl) were carried out in 60 mM KOAc, 100 μg/ml BSA, 0.5 mM Mg(Cl)2, 1 μl T4 DNA ligase 10× buffer (Promega, Madison, USA). Nuclear extract and Dbait were incubated 2 minutes before addition of ^32P-labeled DNA (10 ng). Samples were incubated various time at 37° C. before ligation being stopped by 20 mM EDTA and 1 mg/ml Proteinase K addition. Ligation products were analyzed by electrophoresis through 0.7% agarose gels followed by autoradiography and quantification by phosphorimaging.

[2] = target: T1, DNA-PK (Homo sapiens, UniProt P12956+P13010+P78527); assay: DNA-dependent protein kinase (DNA-PK) activity assay in Hep2 nuclear extract; type: biochemical; details: 2 μg Dbait, 1.5 μg Hep2 nuclear protein extract
T1 construct: Increasing amounts of Hep2 nuclear extract (cleaned of endogenous DNA by DEAE-Sepharose filtration) were assayed; endogenous in cells; host or cells: Hep2 cells (nuclear extract, DNA removed by DEAE-Sepharose filtration)
Protocol: as §1
The kinase activity depended directly on the length and structure of the double-stranded ‘stem’ of the Dbait molecule. […] In addition, various backbone modifications (phosphothioate, methyphosphonate, 3′-3′ linkage) at the free blunt end (up to 3-bp), as well as the internally tagged ligands (e.g. fluorescent dyes), are capable of activating DNA-PK activity.

[3] = system: Hela cells; assay: Clonogenic survival assay of Hela cells after 4×0.5 Gy irradiation; type: cell-based, human; details: 4×0.5 Gy spaced 2 hours, Dbait transfected with Superfect (83 nM or 2 μg)
Protocol: (§2) Exponentially growing cells in six-well plates were harvested and incubated with […] of complete DMEM containing a mixture of Dbait molecules and Superfect reagent (Qiagen, Courtaboeuf, France) in a ratio of 10 μl Superfect per μg DNA. After 5 h at 37° C. under standard conditions, the cells were washed with PBS and complete DMEM was added. Where indicated, cells were exposed to irradiation either in one session (10 Gy) 5 h after the beginning of transfection or in four sessions of 0.5 Gy administered with a ^137Cs unit (1 Gy/min) 3, 4, 5 and 6 h after the beginning of transfection and allowed to grow for two weeks. When plasmid integration was measured, 2 μg of plasmid was added to Dbait transfection and puromycin (1.7 μg/ml) was added to the growth medium 48 h after transfection. Plasmid transfection efficiency was estimated by analyzing 10,000 cells for GFP expression on a FACScan flow cytometer (FACSalibur, Beckton-Dickinson, USA).
Upon 8 hours transfection of Dbait molecules in Hela cells and four irradiation with 0.5 Gy fractionated irradiation spaced 2 hours (4×0.5 Gy), performed with γ-rays from a ^137Cs source, a significant reduction of clonogenic survival was observed as compared to untransfected cells. The results are given on FIG. 2.1 wherein Panel A gives the dose-dependence of normalized survival clone number in the presence of Dbait32 (SEQ ID NO: 1) and Dbait32H (SEQ ID NO: 1), and Panel B, the normalized survival clone number in the presence of different Dbait molecules at 83 nM (concentration in culture medium). Cell culture was in MEM supplemented with 10% serum. Superfect (Qiagene) was used as transfection agent according to the manufacturer's instruction.
Clonogenic survival was estimated as the number of treated cells forming colonies on the number of untreated cells.

[4] = target: T2, Ku complex (Homo sapiens, UniProt P12956+P13010); assay: Band-shift assay with Hep2 nuclear protein extracts; type: binding; details: for retarded bands in band-shift assay: 10 nM 32P radio-labelled Dbait, 0-320 ng/μL Hep2 nuclear proteins, 30° C., 10 minutes
T2 construct: in the presence of nuclear protein extracts from Hep2 cells according to standard protocol; endogenous in cells; host or cells: Hep2 cells (nuclear protein extract)
Protocol: As the first step to dissect the mechanism of action of Dbait molecules, a series of band-shift assays were carried out with different ^32P radio-labelled Dbait molecules in the presence of nuclear protein extracts from Hep2 cells according to standard protocol. Typically, 10 nM ^32P radio-labelled Dbait molecules were incubated in the presence of various concentrations of nuclear proteins (0, 10, 20, 40, 80, 160, and 320 ng/μL) at 30° C. for 10 minutes in TBE buffer. Then the samples were loaded on a 5% acrylamide native gel. The electrophoresis was run at 95V for 2 hours at 4° C. The gel was dried and scanned by phosphorimager (Molecular Dynamics).
For 32-bp Dbait molecules, the intensity of the retarded band 1 increases and then decreases as the concentration of protein increases, while the intensity of the retarded band 2 increases as a function of the concentration of nuclear protein extracts.
It is likely that band 1 has one Ku70/80 complex bound to the 16 to 32-bp Dbait, whereas the band 2 has two Ku70/80 complexes bound to the 32-bp Dbait molecules. Control experiments performed with purified Ku proteins confirmed this interpretation.

[5] = system: radiation-enhanced illegitimate integration of a plasmid in Hela cells; assay: Inhibition of radiation-enhanced illegitimate integration of exogenous DNA; type: cell-based, human; details: 2 μg Dbait, fractionated 4×0.5 Gy irradiation
Protocol: as §2
Ionizing radiation is known to improve illegitimate integration of exogenous DNA, a process termed radiation-enhanced integration. Hela cell culture was used for this assay. Cells were transfected during 8 hours by 2 μg of a linear plasmid carrying the gene coding for neomycin resistance, and three different ratio of DNA/superfect (1:2, 1:5, 1:10). During transfection time, the cells were exposed to different irradiation protocols: no irradiation, one single irradiation of 1 Gy and 2 Gy, as well as a 2 Gy irradiation delivered by fractionated doses of 0.5 Gy every 2 hours (4×0.5 Gy). The integration of the plasmid was monitored by selection of Neo^R cells growing in a medium containing 0.6 mg/ml of G418. […] When 2 μg of Dbait32H (SEQ ID NO: 1) molecules were added to the transfection mix, the radiation-enhanced integration was abolished (FIG. 2.3).
Wortmann (Wort) and NU7026 (NU) which are known inhibitors of PI3K (including DNA-PK) were used as control.

T2 sequence (P12956 whole entry): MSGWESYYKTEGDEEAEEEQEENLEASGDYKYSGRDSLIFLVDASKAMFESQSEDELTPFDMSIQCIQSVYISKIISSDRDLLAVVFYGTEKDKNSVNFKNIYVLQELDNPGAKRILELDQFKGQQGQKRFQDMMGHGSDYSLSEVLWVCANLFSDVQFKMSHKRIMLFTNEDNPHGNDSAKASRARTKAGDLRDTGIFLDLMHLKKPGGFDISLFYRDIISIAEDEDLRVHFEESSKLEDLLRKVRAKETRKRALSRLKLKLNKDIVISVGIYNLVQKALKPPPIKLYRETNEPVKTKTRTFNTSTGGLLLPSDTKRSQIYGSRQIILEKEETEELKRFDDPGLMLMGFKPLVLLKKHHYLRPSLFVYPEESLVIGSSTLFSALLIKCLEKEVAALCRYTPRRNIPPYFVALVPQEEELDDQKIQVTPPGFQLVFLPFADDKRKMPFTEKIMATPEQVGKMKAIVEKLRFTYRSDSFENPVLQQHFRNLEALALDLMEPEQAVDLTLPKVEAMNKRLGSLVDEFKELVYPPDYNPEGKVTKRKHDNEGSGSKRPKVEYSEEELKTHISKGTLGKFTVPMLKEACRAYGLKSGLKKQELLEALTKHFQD
T2 sequence (P13010 whole entry): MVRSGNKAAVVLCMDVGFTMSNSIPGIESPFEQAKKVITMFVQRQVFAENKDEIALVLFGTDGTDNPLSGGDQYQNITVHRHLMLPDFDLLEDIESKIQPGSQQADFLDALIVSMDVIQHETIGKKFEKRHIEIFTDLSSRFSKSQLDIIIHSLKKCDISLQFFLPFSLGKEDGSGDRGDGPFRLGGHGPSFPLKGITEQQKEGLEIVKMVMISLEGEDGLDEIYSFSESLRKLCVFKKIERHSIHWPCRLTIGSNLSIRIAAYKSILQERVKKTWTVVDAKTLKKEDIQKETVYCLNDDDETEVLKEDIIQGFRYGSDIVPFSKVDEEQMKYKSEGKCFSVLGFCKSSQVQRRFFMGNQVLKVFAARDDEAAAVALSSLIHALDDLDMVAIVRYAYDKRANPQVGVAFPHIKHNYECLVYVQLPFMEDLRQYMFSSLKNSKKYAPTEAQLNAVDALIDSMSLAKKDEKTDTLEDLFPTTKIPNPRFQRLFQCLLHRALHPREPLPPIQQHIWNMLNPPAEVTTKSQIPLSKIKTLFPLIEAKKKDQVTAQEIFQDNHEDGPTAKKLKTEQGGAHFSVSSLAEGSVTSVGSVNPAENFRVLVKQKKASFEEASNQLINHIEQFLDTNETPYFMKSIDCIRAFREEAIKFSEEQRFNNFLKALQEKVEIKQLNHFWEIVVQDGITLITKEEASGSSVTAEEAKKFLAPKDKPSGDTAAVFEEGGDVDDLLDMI

Substance | ligation of DNA fragments in cell-free assay [1] | clonogenic survival [3] | retarded bands in band-shift assay [4] | also measured
Dbait24H: hairpin double strand DNA with a stem of 24-bp (DNA ACGCACGGGTGTTGGGTCGTTTGT; DNA, backbone not given here; hairpin DNA with hexaethyleneglycol loop, 3-bp phosphorothioate at free blunt end) | inhibited the ligation as efficiently as Dbait32H | significantly reduced clonogenic survival | One retarded band | DNA-PK activation (kinase activity) [2]: inefficient; binding of Ku ([4]; Hep2 nuclear extract, band-shift): bound only one Ku dimer
Dbait32H-po: full length phosphodiester Dbait32H (DNA ACGCACGGGTGTTGGGTCGTTTGTTCGGATCT; DNA, phosphodiester; hairpin DNA closed by hexaethyleneglycol loop) |  |  | two retarded band | 
Dbait32C: dumbbell 32-bp double strand DNA (without free blunt end) (DNA ACGCACGGGTGTTGGGTCGTTTGTTCGGATCT; DNA, backbone not given here; dumbbell duplex DNA, both ends closed by hexaethyleneglycol loops) | largely unaffected |  |  | radiation-enhanced illegitimate integration of plasmid (puromycin resistance) [5]: not effective
5′ACGCACGGGTGTTGGGTCGTTTGTTCGGATCT ACGCACGGTCGTTTGTTCGGTGTTGGCGATCT3′ [Dbait64L] |  | significantly reduced clonogenic survival |  | 
Dbait32-T4: contains four thymines (T4) as a linker instead of a hexaethyleneglycol linker (DNA ACGCACGGGTGTTGGGTCGTTTGTTCGGATCT; DNA, backbone not given here; hairpin DNA with four-thymine loop, 3-bp phosphorothioate at free blunt end) |  | significantly reduced clonogenic survival |  | 
5′ACGCACGGGTGTTGGGTCGTTTGTTCGGATCTACGCACGGTCGTTTGTTCGGTGTTGGCGATCT3′ [Dbait64] |  | significantly reduced clonogenic survival |  | 
